Assay results as given in patent US8288371B2, “Ortho pyrrolidine, benzyl-substituted heterocycle CCR1 antagonists for autoimmune diseases and inflammation” (Pharmacopeia, LLC, priority 2007, dated 2012).

Biological target: T1, human CCR1 (Homo sapiens, UniProt P32246)
T1 sequence (P32246 1-355): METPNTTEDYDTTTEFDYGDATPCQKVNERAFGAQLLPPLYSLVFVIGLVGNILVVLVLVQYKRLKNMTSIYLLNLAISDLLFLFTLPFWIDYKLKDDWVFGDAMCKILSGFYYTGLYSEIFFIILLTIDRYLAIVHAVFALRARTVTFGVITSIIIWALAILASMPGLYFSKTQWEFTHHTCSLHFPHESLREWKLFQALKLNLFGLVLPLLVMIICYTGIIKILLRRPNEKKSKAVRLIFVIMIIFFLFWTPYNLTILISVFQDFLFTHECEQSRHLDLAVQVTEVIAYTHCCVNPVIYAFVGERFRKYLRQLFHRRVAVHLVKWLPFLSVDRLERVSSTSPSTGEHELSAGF
Assay: CCR1 binding protocol (SPA, [125I]-MIP-1α displacement)
Conditions: cell membrane expressing human CCR1, 0.1 nM [125I]-MIP-1α, 4 hours at ambient temperature; read-out: Relative potency (IC50)
In short: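 Displacement of 0.1 nM [125I]-MIP-1α (final) from membranes expressing human CCR1 was measured by scintillation proximity after 4 h at ambient temperature. Conditions: pH 7.4 Tris buffer with 0.1% BSA and MnCl, and 0.5 μg membrane per well. Compounds were tested as a 10-step ½-log series from a 10 mM DMSO stock to derive IC50.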

| Structure (SMILES) | IC50 |
| --- | --- |
| Cc1nnc([C@H]2CCCN2C(=O)Nc2ccc(Cl)c(S(C)(=O)=O)c2)n1Cc1ccc(Cl)cc1 [Compound 443] | 0.05 to 0.5 µM |
| Cc1nnc([C@H]2C[C@@H](O)CN2C(=O)NC2CCOc3cc(C#N)ccc32)n1Cc1ccc(Cl)cc1 (stereo partly drawn) [Compound 444] | 0.05 to 0.5 µM |
| Cc1noc(C)c1NC(=O)N1C[C@@H](O)C[C@@H]1c1nnc(C)n1Cc1ccc(Cl)cc1 [Compound 445] | 0.05 to 0.5 µM |
| Cc1nnc([C@H]2C[C@@H](O)CN2C(=O)Nc2ccc(Cl)c(C(F)(F)F)c2)n1Cc1ccc(Cl)cc1 [Compound 446] | 0.05 to 0.5 µM |
| Cc1noc(C)c1NC(=O)N1C[C@H](O)C[C@@H]1c1nnc(C)n1Cc1ccc(Cl)cc1 [Compound 447] | 0.05 to 0.5 µM |
| O=C(Nc1ccc(Cl)c(C(F)(F)F)c1)N1CCC[C@@H]1c1ncnn1Cc1ccc(Cl)cc1 [Compound 448] | 0.05 to 0.5 µM |
| Cc1nnc([C@H]2C[C@@H](O)CN2C(=O)Nc2ccc(F)c(C(F)(F)F)c2)n1Cc1ccc(Cl)cc1 [Compound 449] | 0.5 to 5 µM |
| CC(=O)N1CCC(NC(=O)N2CCC[C@@H]2c2nnc(C)n2Cc2ccc(Cl)cc2)CC1 [Compound 450] | 0.5 to 5 µM |
| Cc1nnc([C@H]2CCCN2C(=O)Nc2ccc(S(=O)(=O)N(C)C)cc2Cl)n1Cc1ccc(Cl)cc1 [Compound 451] | < 0.05 µM |
| Cc1cc(C)c(S(=O)(=O)O)cc1NC(=O)N1CCC[C@@H]1c1nnc(C)n1Cc1ccc(Cl)cc1 [Compound 455] | 0.05 to 0.5 µM |
| Cc1c(Cl)nc([C@H]2CCCN2C(=O)Nc2ccc(Cl)cc2F)n1Cc1ccc(Cl)cc1 [Compound 457] | 0.05 to 0.5 µM |
| COCc1nnc([C@H]2CCCN2C(=O)N[C@H]2CCOc3cc(C(F)(F)F)ccc32)n1Cc1ccc(Cl)cc1 [Compound 459] | < 0.05 µM |
| COCc1nnc([C@H]2CCCN2C(=O)NCc2ccc(Cl)cc2Cl)n1Cc1ccc(Cl)cc1 [Compound 462] | 0.05 to 0.5 µM |
| COCc1nnc([C@H]2CCCN2C(=O)Nc2ccc(Cl)cc2F)n1Cc1ccc(Cl)cc1 [Compound 465] | 0.5 to 5 µM |
| Cc1cc(C)c(S(N)(=O)=O)cc1NC(=O)N1CCC[C@@H]1c1nnc(C)n1Cc1ccc(Cl)cc1 [Compound 469] | < 0.05 µM |
| Cc1nnc([C@H]2C[C@H](O)CN2C(=O)NCc2ccc(Cl)cc2Cl)n1Cc1ccc(Cl)cc1 [Compound 470] | < 0.05 µM |
| Cc1nnc([C@H]2C[C@H](O)CN2C(=O)NCc2ccc(C(F)(F)F)cc2)n1Cc1ccc(Cl)cc1 [Compound 471] | < 0.05 µM |

| Structure (SMILES) | IC50 |
| --- | --- |
| O=C(N[C@H]1CCOc2cc(C(F)(F)F)ccc21)N1C[C@H](O)C[C@@H]1c1nncn1Cc1ccc(Cl)cc1 [Compound 472] | < 0.05 µM |
| Cc1nnc([C@H]2C[C@H](O)CN2C(=O)N[C@@H](C)c2ccc(Cl)cc2)n1Cc1ccc(Cl)cc1 [Compound 474] | < 0.05 µM |
| O=C(NCc1ccc(Cl)cc1Cl)N1C[C@H](O)C[C@@H]1c1nncn1Cc1ccc(Cl)cc1 [Compound 475] | 0.05 to 0.5 µM |
| O=C(NC(c1ccccc1)c1ccccc1)N1C[C@H](O)C[C@@H]1c1nncn1Cc1ccc(Cl)cc1 [Compound 476] | 0.05 to 0.5 µM |
| O=C(NC1(c2ccc(C(F)(F)F)cc2)CC1)N1C[C@H](O)C[C@@H]1c1nncn1Cc1ccc(Cl)cc1 [Compound 477] | 0.05 to 0.5 µM |
| CC(=O)O[C@@H]1C[C@H](c2nncn2Cc2ccc(Cl)cc2)N(C(=O)NC(c2ccccc2)c2ccccc2)C1 [Compound 478] | 0.05 to 0.5 µM |
| O=C(Nc1ccc(Cl)cc1F)N1C[C@H](O)C[C@@H]1c1nncn1Cc1ccc(Cl)cc1 [Compound 480] | 0.05 to 0.5 µM |
| CC(=O)O[C@H]1C[C@H](c2nnc(C)n2Cc2ccc(Cl)cc2)N(C(=O)Nc2ccc(Cl)cc2F)C1 [Compound 481] | 0.5 to 5 µM |
| Cc1cc(C)c(S(=O)(=O)N(C)C)cc1NC(=O)N1CCC[C@@H]1c1nnc(C)n1Cc1ccc(Cl)cc1 [Compound 483] | < 0.05 µM |
| CNS(=O)(=O)c1cc(NC(=O)N2CCC[C@@H]2c2nnc(C)n2Cc2ccc(Cl)cc2)c(C)cc1C [Compound 484] | < 0.05 µM |
| CC(=O)O[C@@H]1C[C@H](c2ncnn2Cc2ccc(Cl)cc2)N(C(=O)Nc2ccc(Cl)cc2F)C1 [Compound 485] | 0.5 to 5 µM |
| Cc1nnc([C@H]2CCCN2C(=O)Nc2ccc(Cl)c(C#N)c2)n1Cc1ccc(Cl)cc1 [Compound 487] | < 0.05 µM |
| CC(=O)O[C@@H]1C[C@H](c2ncnn2Cc2ccc(Cl)cc2)N(C(=O)N[C@H]2CCOc3cc(C(F)(F)F)ccc32)C1 [Compound 488] | < 0.05 µM |
| NC(=O)c1nnc([C@H]2CCCN2C(=O)N[C@H]2CCOc3cc(C(F)(F)F)ccc32)n1Cc1ccc(Cl)cc1 [Compound 489] | 0.5 to 5 µM |
| NC(=O)c1nnc([C@H]2CCCN2C(=O)Nc2ccc(Cl)cc2F)n1Cc1ccc(Cl)cc1 [Compound 490] | 0.5 to 5 µM |
| Cc1nnc([C@H]2C[C@H](O)CN2C(=O)Nc2ccc(Cl)nc2Cl)n1Cc1ccc(Cl)cc1 [Compound 492] | 0.05 to 0.5 µM |

The remaining lines, values ahead:

| IC50 | Structure (SMILES) |
| --- | --- |
| < 0.05 µM | CNS(=O)(=O)c1ccc(NC(=O)N2CCC[C@@H]2c2nnc(C)n2Cc2ccc(Cl)cc2)c(Cl)c1 [Compound 452] |
| 0.05 to 0.5 µM | Cc1nnc([C@H]2CCCN2C(=O)Nc2cnc(C(F)(F)F)nc2)n1Cc1ccc(Cl)cc1 [Compound 453] |
| 0.05 to 0.5 µM | Cc1nnc([C@H]2CCCN2C(=O)Nc2ccc(C#N)cc2F)n1Cc1ccc(Cl)cc1 [Compound 454] |
| 0.05 to 0.5 µM | Cc1nnc([C@H]2CCCN2C(=O)Nc2ccc(S(=O)(=O)O)cc2Cl)n1Cc1ccc(Cl)cc1 [Compound 456] |
| < 0.05 µM | CC[C@@H](NC(=O)N1CCC[C@@H]1c1nnc(C)n1Cc1ccc(Cl)cc1)c1ccc(C(F)(F)F)nc1 [Compound 458] |
| < 0.05 µM | Cc1nnc([C@H]2CCCN2C(=O)N[C@H](C)c2ccc(C(F)(F)F)nc2)n1Cc1ccc(Cl)cc1 [Compound 460] |
| 0.05 to 0.5 µM | Cc1nnc([C@H]2CCCN2C(=O)Cc2cccc(C(F)(F)F)c2)n1Cc1ccc(Cl)cc1 [Compound 461] |
| 0.05 to 0.5 µM | COCc1nnc([C@H]2CCCN2C(=O)N[C@@H](C)c2ccc(Cl)cc2)n1Cc1ccc(Cl)cc1 [Compound 463] |
| 0.5 to 5 µM | Cc1nnc([C@H]2CCCN2C(=O)Nc2nnc(C(F)(F)F)s2)n1Cc1ccc(Cl)cc1 [Compound 464] |
| < 0.05 µM | Cc1nc(C(F)(F)F)nc(C)c1NC(=O)N1CCC[C@@H]1c1nnc(C)n1Cc1ccc(Cl)cc1 [Compound 466] |
| < 0.05 µM | CC[C@H](NC(=O)N1CCC[C@@H]1c1nnc(C)n1Cc1ccc(Cl)cc1)c1ccc(C(F)(F)F)nc1 [Compound 467] |
| < 0.05 µM | Cc1nnc([C@H]2CCCN2C(=O)N[C@@H](C)c2ccc(C(F)(F)F)nc2)n1Cc1ccc(Cl)cc1 [Compound 468] |
| < 0.05 µM | Cc1nnc([C@H]2CCCN2C(=O)Nc2c(F)cc(F)cc2F)n1Cc1ccc(Cl)cc1 [Compound 473] |
| 0.05 to 0.5 µM | Cc1nnc([C@H]2CCCN2C(=O)C[C@H](C)c2ccccc2)n1Cc1ccc(Cl)cc1 [Compound 479] |
| 0.5 to 5 µM | Cc1nnc([C@H]2CCCN2C(=O)C[C@@H](C)c2ccccc2)n1Cc1ccc(Cl)cc1 [Compound 482] |
| < 0.05 µM | Cc1nnc([C@H]2CCCN2C(=O)Nc2ccc(S(N)(=O)=O)cc2Cl)n1Cc1ccc(Cl)cc1 [Compound 486] |
| < 0.05 µM | Cc1nnc([C@H]2C[C@H](O)CN2C(=O)Nc2ccc(C(F)(F)F)nc2Cl)n1Cc1ccc(Cl)cc1 [Compound 491] |
| 0.05 to 0.5 µM | Cc1nnc([C@H]2C[C@@H](O)CN2C(=O)Nc2ccc(C(F)(F)F)nc2Cl)n1Cc1ccc(Cl)cc1 [Compound 494] |
